# Data reported in patent US9925222B2, “Gut barrier dysfunction treatment and prevention” (ALBERT EINSTEIN COLLEGE OF MEDICINE OF YESHIVA UNIVERSITY, priority 2012, dated 2018).
# Columns and labels:
# [1] = target: T1, aryl hydrocarbon receptor (AhR) (Homo sapiens, UniProt P35869); experiment: AhR activation
# T1 sequence (P35869 11-848): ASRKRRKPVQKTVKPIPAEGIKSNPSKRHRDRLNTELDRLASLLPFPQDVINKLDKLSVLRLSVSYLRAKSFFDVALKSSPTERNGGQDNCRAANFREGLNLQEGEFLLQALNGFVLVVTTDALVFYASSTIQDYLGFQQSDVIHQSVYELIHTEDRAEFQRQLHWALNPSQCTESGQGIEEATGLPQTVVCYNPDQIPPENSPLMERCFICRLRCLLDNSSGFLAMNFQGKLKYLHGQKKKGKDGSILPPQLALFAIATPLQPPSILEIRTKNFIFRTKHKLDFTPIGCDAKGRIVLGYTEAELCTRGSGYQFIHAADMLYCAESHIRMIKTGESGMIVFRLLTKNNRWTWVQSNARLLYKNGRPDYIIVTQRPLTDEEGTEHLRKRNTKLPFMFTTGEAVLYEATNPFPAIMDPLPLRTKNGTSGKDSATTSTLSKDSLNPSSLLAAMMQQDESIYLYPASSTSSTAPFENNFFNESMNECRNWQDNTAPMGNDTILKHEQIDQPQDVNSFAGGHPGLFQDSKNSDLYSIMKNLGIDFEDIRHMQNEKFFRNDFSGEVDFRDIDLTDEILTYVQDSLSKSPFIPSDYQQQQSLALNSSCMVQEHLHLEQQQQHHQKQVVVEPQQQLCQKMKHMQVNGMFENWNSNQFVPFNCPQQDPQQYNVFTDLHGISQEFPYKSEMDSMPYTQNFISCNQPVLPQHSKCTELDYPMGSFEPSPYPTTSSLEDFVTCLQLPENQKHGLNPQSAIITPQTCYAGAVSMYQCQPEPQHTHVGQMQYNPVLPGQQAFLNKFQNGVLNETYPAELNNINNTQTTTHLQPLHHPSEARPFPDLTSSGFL
# [2] = system: Tnf-α mRNA expression; experiment: KDO2-lipid A gut mucosal endotoxemia model with oral IPA, Tnf-α qPCR in jejunum apical enterocytes; format: in vivo; details: KDO2 200 μg/mice, oral IPA 20 mg/kg
# Description: 2.0 μg of total RNA extracted from pooled apical enterocytes with TRIzolR (Invitrogen), were reverse transcribed with random hexamer primers and SuperScript™ III-RT enzyme (Invitrogen). Quantitative PCR (qPCR) reactions using TaqMan universal PCR master mix and TaqMan probes containing FAM as the 5′ reporter fluorochrome and tetramethylrhodamine (MGB) as the 3′ quencher fluorochrome, were performed in triplicate for each sample and analyzed on the ABI Prism 7900HT system. […]
# For indomethacin induced mouse jejunitis model, a protocol published by Ettarh and Carr was modified by using a single intraperitoneal dose of indomethacin to reduce the toxicity in Pxr^−/− mice (17). […] Weights of individual jejunum sections were measured for quantitation of enteropooling (intestinal weight/length in mg/cm). […]
# [3] = system: PXR target gene transcription (Mdr-1); experiment: PXR target gene (Mdr-1) qPCR in jejunum apical enterocytes after oral IPA; format: in vivo, mice; details: oral IPA 20 mg/kg; Mdr-1, jejunum apical enterocytes
# Description: 2.0 μg of total RNA extracted from pooled apical enterocytes with TRIzolR (Invitrogen), were reverse transcribed with random hexamer primers and SuperScript™ III-RT enzyme (Invitrogen). Quantitative PCR (qPCR) reactions using TaqMan universal PCR master mix and TaqMan probes containing FAM as the 5′ reporter fluorochrome and tetramethylrhodamine (MGB) as the 3′ quencher fluorochrome, were performed in triplicate for each sample and analyzed on the ABI Prism 7900HT system. […] Controls include RT-minus RNA samples. PCR reaction conditions for all assays were set at 50° C. for 2 minutes, 95° C. for 10 minutes, followed by 40 cycles of amplification (95° C. for 15 seconds then 60° C. for 1 minute). Experiments were performed at least two independent times each in triplicates.
smiles,measurement,setting,value
"O=C(O)CCc1c[nH]c2ccccc12 [IPA, indole-3-propionic acid]",Activation of AhR,[1],no activation
same,Decrease of epithelial Tnf mRNA expression,[2]; Pxr+/+ mice,3.73 fold
same,Decrease of epithelial Tnf mRNA expression,[2]; Pxr−/− mice,1.72 fold
same,PXR target gene transcription in vivo,[3],induces PXR target gene transcription in vivo
